According to patent publication US20260226071A1, “2, 4-DIANILINOPYRIMIDINE-BASED AURORA-A KINASE SELECTIVE DEGRADATION INDUCING COMPOUNDS” (UPPTHERA, INC., priority 2023, published 2026):

Assays:
NCI-H446 cell line = experiment: Cell viability assay for NCI-H446 cell line; type: cell-based; settings: Homo sapiens, NCI-H446, 120 h; H446 cells, 5 days culture, EZ-Cytox; read-out: IC50 value (Level)
Procedure, shortened: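 Viability was measured by absorbance at 450 nm after 4 h with EZ-Cytox, following 5-day exposure of NCI-H446 cells (RPMI 1640, 10% FBS, 37 °C, 5% CO2) to 3-fold serial dilutions from 1000 nM down to 0.15 nM, added 24 h post-seeding.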

Aurora kinase A (AURKA) = molecular target: T1, Aurora kinase A (AURKA) (Homo sapiens, UniProt O14965); experiment: Luciferase assay for AURKA in HeLa LgBit (AURKA-HiBit KI) cell line; type: cell-based; settings: HeLa LgBit (AURKA-HiBit KI) cells, measured after 12 hours
T1 construct: endogenous in cells; host or cells: HeLa LgBit (AURKA-HiBit KI), CRISPR/Cas9 knock-in at the endogenous AURKA locus
T1 sequence (O14965 1-403): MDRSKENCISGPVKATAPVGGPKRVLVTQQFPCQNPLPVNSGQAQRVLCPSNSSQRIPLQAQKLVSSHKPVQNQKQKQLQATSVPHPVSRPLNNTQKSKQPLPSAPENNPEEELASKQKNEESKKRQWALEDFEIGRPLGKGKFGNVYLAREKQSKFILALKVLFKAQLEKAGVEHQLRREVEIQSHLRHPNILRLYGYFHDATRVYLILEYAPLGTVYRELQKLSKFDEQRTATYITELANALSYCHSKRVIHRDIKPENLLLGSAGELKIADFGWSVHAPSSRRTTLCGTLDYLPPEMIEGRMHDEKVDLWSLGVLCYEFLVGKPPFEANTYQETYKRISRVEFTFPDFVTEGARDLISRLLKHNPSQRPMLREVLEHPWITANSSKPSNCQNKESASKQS
Procedure, shortened: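 Test compounds (10 nM or 100 nM) added to AURKA-HiBit knock-in HeLa LgBit cells that had been pre-loaded with Endurazine for 2 h following an 18 h culture at 3×10^4 cells. Endogenous AURKA-HiBit level followed by luminescence (470-480 nm), measured after 12 h.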

Row | luminescence value (Level) (Aurora kinase A (AURKA); 10 nM compound) | luminescence value (Level) (Aurora kinase A (AURKA); 100 nM compound) | Compound | IC50 (NCI-H446 cell line) [nM]
1 | B (B is 0.3 to 0.5) | A (A is <0.2) | O=C1CCC(c2ccc(N3CCN(CC[C@H]4CC[C@H](NC(=O)c5ccc(Nc6ncc(F)c(Nc7ccc(C(=O)Nc8ccccc8Cl)cc7)n6)cc5)CC4)CC3)c(F)c2)C(=O)N1 (stereo partly drawn) [Compound 74, N-(2-chlorophenyl)-4-((2-((4-(((1r,4r)-4-(2-(4-(4-(2,6-dioxopiperidin-3-yl)-2-fluorophenyl)piperazin-1-yl)ethyl)cyclohexyl)carbamoyl)phenyl)amino)-5-fluoropyrimidin-4-yl)amino)benzamide] | < 50
2 | A (A is <0.3) | A (A is <0.2) | CN(CCN1CCN(c2ccc(C3CCC(=O)NC3=O)cc2)CC1)[C@H]1CC[C@H](NC(=O)c2ccc(Nc3ncc(F)c(Nc4ccc(C(=O)Nc5ccccc5Cl)cc4)n3)cc2)CC1 (stereo partly drawn) [Compound 75, N-(2-chlorophenyl)-4-((2-((4-(((1r,4r)-4-((2-(4-(4-(2,6-dioxopiperidin-3-yl)phenyl)piperazin-1-yl)ethyl)(methyl)amino)cyclohexyl)carbamoyl)phenyl)amino)-5-fluoropyrimidin-4-yl)amino)benzamide] | 50 to 100
3 | B (B is 0.3 to 0.5) | A (A is <0.2) | CN(CC1CCN(c2ccc(C3CCC(=O)NC3=O)cc2F)CC1)[C@H]1C[C@H](NC(=O)c2ccc(Nc3ncc(F)c(Nc4ccc(C(=O)Nc5ccccc5Cl)cc4)n3)cc2)C1 (stereo partly drawn) [Compound 76, N-(2-chlorophenyl)-4-((2-((4-(((1r,3r)-3-(((1-(4-(2,6-dioxopiperidin-3-yl)-2-fluorophenyl)piperidin-4-yl)methyl)(methyl)amino)cyclobutyl)carbamoyl)phenyl)amino)-5-fluoropyrimidin-4-yl)amino)benzamide] | 50 to 100
4 | A (A is <0.3) | A (A is <0.2) | O=C1CCC(c2ccc(N3CCC(CN4CC5(CC(NC(=O)c6ccc(Nc7ncc(F)c(Nc8ccc(C(=O)Nc9ccccc9Cl)cc8)n7)cc6)C5)C4)CC3)c(F)c2)C(=O)N1 (stereo not drawn) [Compound 77, N-(2-chlorophenyl)-4-((2-((4-((2-((1-(4-(2,6-dioxopiperidin-3-yl)-2-fluorophenyl)piperidin-4-yl)methyl)-2-azaspiro[3.3]heptan-6-yl)carbamoyl)phenyl)amino)-5-fluoropyrimidin-4-yl)amino)benzamide] | 50 to 100
5 | B (B is 0.3 to 0.5) | A (A is <0.2) | O=C1CCC(c2ccc(N3CC4(CCN(CC5CCN(NC(=O)c6ccc(Nc7ncc(F)c(Nc8ccc(C(=O)Nc9ccccc9Cl)cc8)n7)cc6)CC5)CC4)C3)c(F)c2)C(=O)N1 (stereo not drawn) [Compound 78, N-(2-chlorophenyl)-4-[[2-[4-[[4-[[2-[4-(2,6-dioxo-3-piperidyl)-2-fluoro-phenyl]-2,7-diazaspiro[3.5]nonan-7-yl]methyl]-1-piperidyl]carbamoyl]anilino]-5-fluoro-pyrimidin-4-yl]amino]benzamide] | 50 to 100
6 | A (A is <0.3) | A (A is <0.2) | C[C@@H](CN1CCN(c2ccc(C3CCC(=O)NC3=O)cc2)CC1)C1CCN(NC(=O)c2ccc(Nc3ncc(F)c(Nc4ccc(C(=O)Nc5ccccc5Cl)cc4)n3)cc2)CC1 (stereo partly drawn) [Compound 79, N-(2-chlorophenyl)-4-((2-((4-((4-((2R)-1-(4-(4-(2,6-dioxopiperidin-3-yl)phenyl)piperazin-1-yl)propan-2-yl)piperidin-1-yl)carbamoyl)phenyl)amino)-5-fluoropyrimidin-4-yl)amino)benzamide] | < 50
7 | A (A is <0.3) | A (A is <0.2) | CN(CC1CCN(c2ccc(C3CCC(=O)NC3=O)cc2F)CC1)[C@H]1CC[C@H](NC(=O)c2ccc(Nc3ncc(F)c(Nc4ccc(C(=O)Nc5ccccc5Cl)cc4)n3)cc2)CC1 (stereo partly drawn) [Compound 80, N-(2-chlorophenyl)-4-((2-((4-(((1r,4r)-4-(((1-(4-(2,6-dioxopiperidin-3-yl)-2-fluorophenyl)piperidin-4-yl)methyl)(methyl)amino)cyclohexyl)carbamoyl)phenyl)amino)-5-fluoropyrimidin-4-yl)amino)benzamide] | 50 to 100
8 | A (A is <0.3) | A (A is <0.2) | CN(CC1CCN(c2ccc(C3CCC(=O)NC3=O)cc2F)CC1)C1CCN(NC(=O)c2ccc(Nc3ncc(F)c(Nc4ccc(C(=O)Nc5ccccc5Cl)cc4)n3)cc2)CC1 (stereo not drawn) [Compound 81, N-(2-chlorophenyl)-4-((2-((4-((4-(((1-(4-(2,6-dioxopiperidin-3-yl)-2-fluorophenyl)piperidin-4-yl)methyl)(methyl)amino)piperidin-1-yl)carbamoyl)phenyl)amino)-5-fluoropyrimidin-4-yl)amino)benzamide] | < 50
9 | A (A is <0.3) | A (A is <0.2) | O=C1CCC(c2ccc(N3CCN(CCC4CCN(NC(=O)c5ccc(Nc6ncc(F)c(Nc7ccc(C(=O)Nc8ccccc8Cl)cc7)n6)cc5)CC4)CC3)cc2F)C(=O)N1 (stereo not drawn) [Compound 82, N-(2-chlorophenyl)-4-((2-((4-((4-(2-(4-(4-(2,6-dioxopiperidin-3-yl)-3-fluorophenyl)piperazin-1-yl)ethyl)piperidin-1-yl)carbamoyl)phenyl)amino)-5-fluoropyrimidin-4-yl)amino)benzamide] | < 50
10 | B (B is 0.3 to 0.5) | A (A is <0.2) | O=C1CCC(c2ccc(N3CCN(CCC4CCN(NC(=O)c5ccc(Nc6ncc(F)c(Nc7ccc(C(=O)Nc8ccccc8Cl)cc7)n6)cn5)CC4)CC3)cc2)C(=O)N1 (stereo not drawn) [Compound 83, 5-[[4-[4-[(2-chlorophenyl)carbamoyl]anilino]-5-fluoro-pyrimidin-2-yl]amino]-N-[4-[2-[4-[4-(2,6-dioxo-3-piperidyl)phenyl]piperazin-1-yl]ethyl]-1-piperidyl]pyridine-2-carboxamide] | > 200
11 | B (B is 0.3 to 0.5) | A (A is <0.2) | Cc1cc(N2CCN(CCC3CCN(NC(=O)c4ccc(Nc5ncc(F)c(Nc6ccc(C(=O)Nc7ccccc7Cl)cc6)n5)cc4)CC3)CC2)ccc1NC1CCC(=O)NC1=O (stereo not drawn) [Compound 85, N-(2-chlorophenyl)-4-((2-((4-((4-(2-(4-(4-((2,6-dioxopiperidin-3-yl)amino)-3-methylphenyl)piperazin-1-yl)ethyl)piperidin-1-yl)carbamoyl)phenyl)amino)-5-fluoropyrimidin-4-yl)amino)benzamide] | 150 to 200
12 | A (A is <0.3) | A (A is <0.2) | O=C1CCC(Nc2ccc(N3CCN(CC[C@H]4CC[C@H](NC(=O)c5ccc(Nc6ncc(F)c(Nc7ccc(C(=O)Nc8ccccc8Cl)cc7)n6)cc5)CC4)CC3)c(F)c2)C(=O)N1 (stereo partly drawn) [Compound 86, N-(2-chlorophenyl)-4-((2-((4-(((1r,4r)-4-(2-(4-(4-((2,6-dioxopiperidin-3-yl)amino)-2-fluorophenyl)piperazin-1-yl)ethyl)cyclohexyl)carbamoyl)phenyl)amino)-5-fluoropyrimidin-4-yl)amino)benzamide] | 50 to 100
13 | A (A is <0.3) | A (A is <0.2) | O=C1CCC(c2ccc(N3CCN(CCC4CCN(NC(=O)c5ccc(Nc6ncc(F)c(Nc7ccc(C(=O)Nc8ccccc8Cl)cc7)n6)cc5)CC4)CC3)cn2)C(=O)N1 (stereo not drawn) [Compound 88, N-(2-chlorophenyl)-4-((2-((4-((4-(2-(4-(6-(2,6-dioxopiperidin-3-yl)pyridin-3-yl)piperazin-1-yl)ethyl)piperidin-1-yl)carbamoyl)phenyl)amino)-5-fluoropyrimidin-4-yl)amino)benzamide] | < 50
14 | A (A is <0.3) | A (A is <0.2) | O=C1CCC(c2ccc(N3CCN(CCC4CCN(NC(=O)c5ccc(Nc6ncc(F)c(Nc7ccc(C(=O)Nc8ccccc8F)cc7)n6)cc5)CC4)CC3)cc2)C(=O)N1 (stereo not drawn) [Compound 90, 4-[[2-[4-[[4-[2-[4-[4-(2,6-dioxo-3-piperidyl)phenyl]piperazin-1-yl]ethyl]-1-piperidyl]carbamoyl]anilino]-5-fluoro-pyrimidin-4-yl]amino]-N-(2-fluorophenyl)benzamide] | < 50
15 | A (A is <0.3) | A (A is <0.2) | O=C1CCC(c2ccc(N3CCN(CCC4CCN(NC(=O)c5ccc(Nc6ncc(F)c(Nc7ccc(NC(=O)c8ccccc8Cl)cc7)n6)cc5)CC4)CC3)cc2)C(=O)N1 (stereo not drawn) [Compound 93, 2-chloro-N-(4-((2-((4-((4-(2-(4-(4-(2,6-dioxopiperidin-3-yl)phenyl)piperazin-1-yl)ethyl)piperidin-1-yl)carbamoyl)phenyl)amino)-5-fluoropyrimidin-4-yl)amino)phenyl)benzamide] | < 50
